# Measured values from PubChem BioAssay (NCI).
#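 GI50 marks 50% less growth. TGI: concentration producing complete growth inhibition.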
# Experiments:
# Assay in all cases: NCI-60 cell line screen, 384-well format
# SK-MEL-5 melanoma = tested on: SK-MEL-5 melanoma
# NCI-H460 NSCLC = tested on: NCI-H460 NSCLC
# SF-268 CNS = tested on: SF-268 CNS
# SW-620 colon = tested on: SW-620 colon
# HL-60(TB) leukemia = tested on: HL-60(TB) leukemia
# OVCAR-8 ovarian = tested on: OVCAR-8 ovarian
# T-47D breast = tested on: T-47D breast
# COLO 205 colon = tested on: COLO 205 colon
# HCC-2998 colon = tested on: HCC-2998 colon
# MDA-MB-435 melanoma = tested on: MDA-MB-435 melanoma
# BT-549 breast = tested on: BT-549 breast
# MDA-MB-468 breast = tested on: MDA-MB-468 breast
# RXF 393 renal = tested on: RXF 393 renal
smiles,measurement,setting,value
CC(O)[C@H](NC(=O)N[C@@H](CC(N)=O)c1nc(N2CCNCC2)no1)C(=O)O (stereo partly specified),GI50,SK-MEL-5 melanoma,> 100 µM
same,TGI,SK-MEL-5 melanoma,> 100 µM
same,GI50,NCI-H460 NSCLC,> 100 µM
same,TGI,NCI-H460 NSCLC,> 100 µM
same,GI50,SF-268 CNS,> 100 µM
same,TGI,SF-268 CNS,> 100 µM
same,GI50,SW-620 colon,> 100 µM
same,TGI,SW-620 colon,> 100 µM
same,GI50,HL-60(TB) leukemia,> 100 µM
same,TGI,HL-60(TB) leukemia,> 100 µM
same,GI50,OVCAR-8 ovarian,> 100 µM
same,TGI,OVCAR-8 ovarian,> 100 µM
same,GI50,T-47D breast,> 100 µM
same,TGI,T-47D breast,> 100 µM
same,GI50,COLO 205 colon,> 100 µM
same,TGI,COLO 205 colon,> 100 µM
same,GI50,HCC-2998 colon,> 100 µM
same,TGI,HCC-2998 colon,> 100 µM
same,GI50,MDA-MB-435 melanoma,> 100 µM
same,TGI,MDA-MB-435 melanoma,> 100 µM
same,GI50,BT-549 breast,> 100 µM
same,TGI,BT-549 breast,> 100 µM
same,GI50,MDA-MB-468 breast,> 100 µM
same,TGI,MDA-MB-468 breast,> 100 µM
same,GI50,RXF 393 renal,> 100 µM
same,TGI,RXF 393 renal,> 100 µM
